Laboratory results reported in patent US9677094B2, “Process of producing a fermentation product” (NOVOZYMES A/S, priority 2011, dated 2017).

Key:
[1] = system: Fermentis Red Star yeast; test: Ethanol yield in fermentation (SSF) of liquefied corn mash, HPLC; assay type: cell-based; settings: for EtOH: corn mash 32% DS
Experimental: Pyridoxamine (Sigma #P9380) was evaluated for its ability to increase ethanol yields from laboratory-made corn mash when added at the time of liquefaction or at the beginning of fermentation.
Liquefied mashes were made using corn and backset obtained from a commercial ethanol plant in the Midwestern United States (Corn LP, Goldfield, Iowa). All mashes contained 32% Dry Solids (DS) and were liquefied at a pH of 5.8 for 120 minutes in a water bath at 85° C., using the alpha-amylase product Liquozyme SC DS (Novozymes) at a dose of 0.02% w/w of corn. Experimental mashes were treated with pyridoxamine at doses of 10 micrograms/g DS and 50 micrograms/g DS of pyridoxamine in 110 g mash. During liquefaction, the mashes were shaken vigorously every 2 minutes for the first 20 minutes and again at 30 minute intervals until the total liquefaction time equaled 2 hours. All mashes were then frozen overnight.
To each thawed mash, urea was added to a final concentration of 1000 ppm, and penicillin was added to a final concentration of 3 ppm. To test the effects of pyridoxamine in simultaneous saccharification and fermentation (SSF), separate aliquots of liquefied mash were dosed with 10 micrograms/g DS and 50 micrograms/g DS of pyridoxamine, respectively. The mashes were fermented as follows:
For fermentation, between 4 and 5 grams of each mash was added to 6 pre-weighed tubes per treatment. […] One hundred microliters of Fermentis Red Star yeast (5.5 g yeast in 100 mL tap water incubated at 32° C. for 30 minutes) was added to each tube, and the gluocoamylase product Spirizyme Ultra™ (Novozymes) was added to each tube to achieve a dose of 0.5 AGU/g DS.
After 24 hours, one replicate from each mash was sacrificed for HPLC analysis using 50 microliters of 40% v/v H2SO4. The tubes were centrifuged at 1500×g for 10 minutes, and the supernatants were filtered using Whatman syringe filters with 0.45 micron membranes, then diluted 1:5 for HPLC analysis. The remaining samples were sacrificed after 54 hours in the same manner but were subjected to HPLC analysis without dilution. Ethanol and oligosaccharide concentrations were measured by HPLC using an HPX-87H column (Bio-Rad) heated to 65° C. with a mobile phase of 5 mM sulfuric acid at a flow rate of 0.6 ml/min, with refractive index detection at 50° C.

[2] = system: initial stages of the Maillard reaction; settings: conjugates of beta-lactoglobulin with galactose and tagatose; cited from earlier work
[3] = system: glycation reactions and the formation of advanced glycation end products (AGEs); settings: cited from earlier work
[4] = system: advanced lipoxidation end-products on protein; settings: during lipid peroxidation reactions; cited from earlier work
[5] = system: streptozotocin-induced diabetic and Zucker obese rats; settings: cited from earlier work

SMILES: Cc1ncc(CO)c(CN)c1O [Pyridoxamine]
- ethanol yield versus control ([1]; addition at the beginning of SSF (after liquefaction)): did not result in an increase in ethanol yield
- ethanol yield versus control ([1]; addition at the start of corn mash liquefaction, three of the four results (both doses of 10 and one dose of 50 micrograms/g DS)): statistically significant increase in ethanol yield
- EtOH ([1]; experiment 1, dose 10 micrograms/g DS, addition point Liq (liquefaction)): 12.19 w/v %
- EtOH ([1]; experiment 1, dose 10 micrograms/g DS, addition point SSF): 11.89 w/v %
- EtOH ([1]; experiment 1, dose 50 micrograms/g DS, addition point Liq (liquefaction)): 12.23 w/v %
- EtOH ([1]; experiment 1, dose 50 micrograms/g DS, addition point SSF): 11.79 w/v %
- EtOH ([1]; experiment 2, dose 10 micrograms/g DS, addition point Liq (liquefaction)): 12.01 w/v %
- EtOH ([1]; experiment 2, dose 10 micrograms/g DS, addition point SSF): 11.75 w/v %
- EtOH ([1]; experiment 2, dose 50 micrograms/g DS, addition point Liq (liquefaction)): 11.86 w/v %
- EtOH ([1]; experiment 2, dose 50 micrograms/g DS, addition point SSF): 11.75 w/v %
- effect on the initial stages of the Maillard reaction [2]: inhibitory effect
- inhibition of glycation reactions and AGE formation [3]: can inhibit
- formation of advanced lipoxidation end-products on protein [4]: inhibits
- development of nephropathy ([5]; both animal models): protects against the development of nephropathy
- lipid-lowering effect ([5]; streptozotocin-induced diabetic and Zucker obese rats): strong lipid-lowering effect
